In article PMC2172161 (The Journal of Cell Biology, 2004):

Assays:
Settings in all cases: labelled compound
Cdc10 = molecular target: T1, Cdc10 (Saccharomyces cerevisiae, UniProt P25342); experiment: GTPase, phosphate release from γ[…]GTP; format: biochemical
T1 sequence (P25342 1-322): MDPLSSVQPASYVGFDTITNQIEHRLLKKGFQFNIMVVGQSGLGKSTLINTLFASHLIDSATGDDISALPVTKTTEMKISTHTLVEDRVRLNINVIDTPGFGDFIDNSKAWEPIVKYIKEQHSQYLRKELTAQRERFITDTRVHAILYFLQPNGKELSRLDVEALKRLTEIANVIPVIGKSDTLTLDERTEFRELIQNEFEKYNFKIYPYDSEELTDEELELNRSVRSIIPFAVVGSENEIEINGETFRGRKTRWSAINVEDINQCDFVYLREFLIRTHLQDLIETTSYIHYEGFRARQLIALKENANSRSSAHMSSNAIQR

Cdc12-His6 [1] = molecular target: T2, Cdc12-His6 (Saccharomyces cerevisiae, UniProt P32468); experiment: GTPase, phosphate release from γ[…]GTP; format: biochemical
T2 sequence (P32468 1-407): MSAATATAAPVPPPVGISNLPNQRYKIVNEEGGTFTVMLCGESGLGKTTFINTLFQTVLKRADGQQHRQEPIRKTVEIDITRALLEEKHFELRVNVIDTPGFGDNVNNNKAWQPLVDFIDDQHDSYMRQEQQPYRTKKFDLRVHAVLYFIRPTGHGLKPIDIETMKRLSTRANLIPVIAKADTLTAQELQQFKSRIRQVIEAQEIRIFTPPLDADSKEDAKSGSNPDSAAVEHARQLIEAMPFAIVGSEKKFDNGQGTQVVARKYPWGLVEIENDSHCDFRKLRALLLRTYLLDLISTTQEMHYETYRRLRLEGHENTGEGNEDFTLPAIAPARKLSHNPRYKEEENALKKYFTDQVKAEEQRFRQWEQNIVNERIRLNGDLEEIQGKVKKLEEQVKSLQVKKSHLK

[2] = molecular target: His6Cdc12–Cdc3–Cdc10–Cdc11 complex (Saccharomyces cerevisiae, UniProt P25342+P32468); experiment: binding of α[…]GTP to complex on Ni2+-NTA beads
[3] = molecular target: T3, Cdc12ΔC-His6 (Cdc12(Δ339–407)-His6) (Saccharomyces cerevisiae, UniProt P32468); experiment: filter binding of radiolabelled GTPγS
T3 sequence (P32468 1-338): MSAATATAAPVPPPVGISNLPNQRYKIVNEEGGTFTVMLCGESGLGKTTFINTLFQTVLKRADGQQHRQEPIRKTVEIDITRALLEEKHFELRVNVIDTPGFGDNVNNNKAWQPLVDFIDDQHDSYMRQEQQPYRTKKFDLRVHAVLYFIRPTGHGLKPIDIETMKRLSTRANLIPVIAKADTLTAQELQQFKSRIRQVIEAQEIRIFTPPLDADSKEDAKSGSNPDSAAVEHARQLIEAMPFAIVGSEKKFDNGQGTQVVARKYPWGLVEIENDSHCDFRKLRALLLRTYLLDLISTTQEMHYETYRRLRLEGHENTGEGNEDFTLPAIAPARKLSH

Cdc12-His6 [4] = molecular target: T2, Cdc12-His6; experiment: filter binding of radiolabelled GTPγS

Chain of His6Cdc12–Cdc3–Cdc10–Cdc11 complex (P32457 2-520 partner, one chain of several): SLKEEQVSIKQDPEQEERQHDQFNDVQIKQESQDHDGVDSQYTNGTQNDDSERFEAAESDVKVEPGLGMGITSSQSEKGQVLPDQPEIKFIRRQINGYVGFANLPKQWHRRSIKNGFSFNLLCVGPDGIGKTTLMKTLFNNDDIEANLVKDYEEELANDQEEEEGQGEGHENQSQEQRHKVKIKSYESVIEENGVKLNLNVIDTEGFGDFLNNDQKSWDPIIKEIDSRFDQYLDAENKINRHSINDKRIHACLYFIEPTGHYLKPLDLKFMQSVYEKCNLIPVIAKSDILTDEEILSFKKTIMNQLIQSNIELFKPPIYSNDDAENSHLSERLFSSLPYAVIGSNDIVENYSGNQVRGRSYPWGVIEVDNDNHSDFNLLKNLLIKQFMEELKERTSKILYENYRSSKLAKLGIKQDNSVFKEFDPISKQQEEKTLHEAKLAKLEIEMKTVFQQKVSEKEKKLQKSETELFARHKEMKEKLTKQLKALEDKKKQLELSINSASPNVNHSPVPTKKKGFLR
Chain of His6Cdc12–Cdc3–Cdc10–Cdc11 complex (P32458 2-415 partner, one chain of several): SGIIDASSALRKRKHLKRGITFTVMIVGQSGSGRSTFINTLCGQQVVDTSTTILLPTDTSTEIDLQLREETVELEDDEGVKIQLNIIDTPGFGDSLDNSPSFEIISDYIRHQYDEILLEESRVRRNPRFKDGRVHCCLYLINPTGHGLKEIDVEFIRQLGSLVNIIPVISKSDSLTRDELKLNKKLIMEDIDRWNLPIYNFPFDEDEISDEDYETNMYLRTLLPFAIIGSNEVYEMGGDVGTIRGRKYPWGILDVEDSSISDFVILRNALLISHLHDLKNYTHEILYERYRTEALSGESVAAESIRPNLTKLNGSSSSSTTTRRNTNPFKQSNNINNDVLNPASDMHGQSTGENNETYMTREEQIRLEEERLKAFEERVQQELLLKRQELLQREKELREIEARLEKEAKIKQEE

With `Nc1nc2c(ncn2[C@@H]2O[C@H](COP(=O)(O)OP(=O)(O)OP(=O)(O)O)[C@@H](O)[C@H]2O)c(=O)[nH]1` [GTP] the “GTPase, phosphate release from γ[32P]GTP” value (Cdc10) was “Only Cdc10 and Cdc12 displayed detectable GTPase activity above the background control”, the “GTPase, phosphate release from γ[32P]GTP” value (Cdc12-His6 [1]) was “Only Cdc10 and Cdc12 displayed detectable GTPase activity above the background control” and the “binding of α[32P]GTP to complex on Ni2+-NTA beads” value [2] was “GTP binding to the His6Cdc12–Cdc3–Cdc10–Cdc11 complex”.
`Nc1nc2c(ncn2[C@@H]2O[C@H](COP(=O)(O)OP(=O)(O)OP(O)(O)=S)[C@@H](O)[C@H]2O)c(=O)[nH]1` [GTPγS] was tested, and the “filter binding of radiolabelled GTPγS” value [3] was “Both full-length Cdc12 and Cdc12ΔC formed stable complexes with GTPγS over time” and the “filter binding of radiolabelled GTPγS” value (Cdc12-His6 [4]) was “Both full-length Cdc12 and Cdc12ΔC formed stable complexes with GTPγS over time”.
